Measured values: ChEMBL document CHEMBL4138146, “A Schmidt rearrangement-mediated synthesis of novel tetrahydro-benzo[1,4]diazepin-5-ones as potential anticancer and antiprotozoal agents” (Eur J Med Chem, 2017)

Assays:
Type in all cases: functional
NCI/ADR-RES [1] = test: Growth inhibition of human NCI/ADR-RES cells assessed as cell growth at 10^-4 M incubated for 48 hrs by sulforhodamine B assay relative to control; conditions: read-out: Activity
Hs-578T = test: Growth inhibition of human Hs 578T cells assessed as cell growth at 10^-6 M incubated for 48 hrs by sulforhodamine B assay relative to control; conditions: read-out: Activity
Malme-3M = test: Growth inhibition of human MALME-3M cells assessed as cell growth at 10^-5 M incubated for 48 hrs by sulforhodamine B assay relative to control; conditions: read-out: Activity
NCI-H460 = test: Growth inhibition of human NCI-H460 cells assessed as cell growth at 10^-4 M incubated for 48 hrs by sulforhodamine B assay relative to control; conditions: NCI-H460, 48 h, read-out: Activity
OVCAR-3 [2] = test: Growth inhibition of human OVCAR3 cells assessed as cell growth at 10^-8 M incubated for 48 hrs by sulforhodamine B assay relative to control; conditions: OVCAR-3, 48 h, read-out: Activity
LOX IMVI = test: Growth inhibition of human LOXIMVI cells assessed as cell growth at 10^-7 M incubated for 48 hrs by sulforhodamine B assay relative to control; conditions: read-out: Activity
A549 = test: Growth inhibition of human A549/ATCC cells assessed as cell growth at 10^-5 M incubated for 48 hrs by sulforhodamine B assay relative to control; conditions: A549, 48 h, read-out: Activity
UACC-257 = test: Growth inhibition of human UACC257 cells assessed as cell growth at 10^-5 M incubated for 48 hrs by sulforhodamine B assay relative to control; conditions: UACC-257, 48 h, read-out: Activity
OVCAR-5 [3] = test: Growth inhibition of human OVCAR5 cells assessed as cell growth at 10^-6 M incubated for 48 hrs by sulforhodamine B assay relative to control; conditions: OVCAR-5, 48 h, read-out: Activity
OVCAR-4 = test: Growth inhibition of human OVCAR4 cells assessed as cell growth at 10^-5 M incubated for 48 hrs by sulforhodamine B assay relative to control; conditions: OVCAR-4, 48 h, read-out: Activity
COLO 205 = test: Growth inhibition of human COLO205 cells assessed as cell growth at 10^-4 M incubated for 48 hrs by sulforhodamine B assay relative to control; conditions: COLO 205, 48 h, read-out: Activity
SF-268 = test: Growth inhibition of human SF268 cells assessed as cell growth at 10^-4 M incubated for 48 hrs by sulforhodamine B assay relative to control; conditions: SF-268, 48 h, read-out: Activity
SK-MEL-28 = test: Growth inhibition of human SK-MEL-28 cells assessed as cell growth at 10^-7 M incubated for 48 hrs by sulforhodamine B assay relative to control; conditions: SK-MEL-28, 48 h, read-out: Activity
MDA-MB-435 = test: Growth inhibition of human MDA-MB-435 cells assessed as cell growth at 10^-5 M incubated for 48 hrs by sulforhodamine B assay relative to control; conditions: MDA-MB-435, 48 h, read-out: Activity
OVCAR-3 [4] = test: Growth inhibition of human OVCAR3 cells assessed as cell growth at 10^-6 M incubated for 48 hrs by sulforhodamine B assay relative to control; conditions: OVCAR-3, 48 h, read-out: Activity
OVCAR-8 = test: Growth inhibition of human OVCAR8 cells assessed as cell growth at 10^-5 M incubated for 48 hrs by sulforhodamine B assay relative to control; conditions: OVCAR-8, 48 h, read-out: Activity
SN12C [5] = test: Growth inhibition of human SN12C cells assessed as cell growth at 10^-4 M incubated for 48 hrs by sulforhodamine B assay relative to control; conditions: read-out: Activity
OVCAR-5 [6] = test: Growth inhibition of human OVCAR5 cells assessed as cell growth at 10^-5 M incubated for 48 hrs by sulforhodamine B assay relative to control; conditions: OVCAR-5, 48 h, read-out: Activity
NCI/ADR-RES [7] = test: Growth inhibition of human NCI/ADR-RES cells assessed as cell growth at 10^-6 M incubated for 48 hrs by sulforhodamine B assay relative to control; conditions: read-out: Activity
MOLT-4 = test: Growth inhibition of human MOLT4 cells assessed as cell growth at 10^-5 M incubated for 48 hrs by sulforhodamine B assay relative to control; conditions: MOLT-4, 48 h, read-out: Activity
EKVX = test: Growth inhibition of human EKVX cells assessed as cell growth at 10^-6 M incubated for 48 hrs by sulforhodamine B assay relative to control; conditions: read-out: Activity
HL-60(TB) = test: Growth inhibition of human HL-60(TB) cells assessed as cell growth at 10^-4 M incubated for 48 hrs by sulforhodamine B assay relative to control; conditions: HL-60, 48 h, read-out: Activity
SF-539 = test: Growth inhibition of human SF539 cells assessed as cell growth at 10^-6 M incubated for 48 hrs by sulforhodamine B assay relative to control; conditions: SF-539, 48 h, read-out: Activity
SN12C [8] = test: Growth inhibition of human SN12C cells assessed as cell growth at 10^-6 M incubated for 48 hrs by sulforhodamine B assay relative to control; conditions: read-out: Activity
OVCAR-3 [9] = test: Growth inhibition of human OVCAR3 cells assessed as cell growth at 10^-4 M incubated for 48 hrs by sulforhodamine B assay relative to control; conditions: OVCAR-3, 48 h, read-out: Activity
RPMI-8226 [10] = test: Growth inhibition of human RPMI8226 cells assessed as cell growth at 10^-5 M incubated for 48 hrs by sulforhodamine B assay relative to control; conditions: RPMI-8226, 48 h, read-out: Activity
RPMI-8226 [11] = test: Growth inhibition of human RPMI8226 cells assessed as cell growth at 10^-7 M incubated for 48 hrs by sulforhodamine B assay relative to control; conditions: RPMI-8226, 48 h, read-out: Activity
HCC 2998 = test: Growth inhibition of human HCC2998 cells assessed as cell growth at 10^-5 M incubated for 48 hrs by sulforhodamine B assay relative to control; conditions: HCC 2998, 48 h, read-out: Activity
T47D = test: Growth inhibition of human T47D cells assessed as cell growth at 10^-4 M incubated for 48 hrs by sulforhodamine B assay relative to control; conditions: read-out: Activity
KM12 = test: Growth inhibition of human KM12 cells assessed as cell growth at 10^-6 M incubated for 48 hrs by sulforhodamine B assay relative to control; conditions: KM12, 48 h, read-out: Activity
SR = test: Growth inhibition of human SR cells assessed as cell growth at 10^-4 M incubated for 48 hrs by sulforhodamine B assay relative to control; conditions: read-out: Activity
CCRF-CEM = test: Growth inhibition of human CCRF-CEM cells assessed as cell growth at 10^-6 M incubated for 48 hrs by sulforhodamine B assay relative to control; conditions: read-out: Activity
IGROV-1 = test: Growth inhibition of human IGROV1 cells assessed as cell growth at 10^-6 M incubated for 48 hrs by sulforhodamine B assay relative to control; conditions: IGROV-1, 48 h, read-out: Activity
HOP-92 = test: Growth inhibition of human HOP92 cells assessed as cell growth at 10^-7 M incubated for 48 hrs by sulforhodamine B assay relative to control; conditions: HOP-92, 48 h, read-out: Activity

## CCCCOc1nc2ccccc2cc1C1CNC(=O)c2ccccc2N1 (centres undefined)
NCI/ADR-RES [1]
  growth at 100 µM: -50%
Hs-578T
  growth at 1 µM: 73%
Malme-3M
  growth at 10 µM: 41%
NCI-H460
  growth at 100 µM: -73%
OVCAR-3 [2]
  growth at 0.01 µM: 100%
LOX IMVI
  growth at 0.1 µM: 93%
A549
  growth at 10 µM: 14%
UACC-257
  growth at 10 µM: 48%
OVCAR-5 [3]
  growth at 1 µM: 98%
OVCAR-4
  growth at 10 µM: 37%
COLO 205
  growth at 100 µM: -62%
SF-268
  growth at 100 µM: 1%
SK-MEL-28
  growth at 0.1 µM: 98%
MDA-MB-435
  growth at 10 µM: -58%
OVCAR-3 [4]
  growth at 1 µM: 64%
OVCAR-8
  growth at 10 µM: 12%
SN12C [5]
  growth at 100 µM: -53%
OVCAR-5 [6]
  growth at 10 µM: 38%
NCI/ADR-RES [7]
  growth at 1 µM: 70%
MOLT-4
  growth at 10 µM: 6%
EKVX
  growth at 1 µM: 89%
HL-60(TB)
  growth at 100 µM: -55%
SF-539
  growth at 1 µM: 85%
SN12C [8]
  growth at 1 µM: 84%
OVCAR-3 [9]
  growth at 100 µM: -92%
RPMI-8226 [10]
  growth at 10 µM: 9%
RPMI-8226 [11]
  growth at 0.1 µM: 98%
HCC 2998
  growth at 10 µM: 15%
T47D
  growth at 100 µM: 10%
KM12
  growth at 1 µM: 85%
SR
  growth at 100 µM: -25%
CCRF-CEM
  growth at 1 µM: 85%
IGROV-1
  growth at 1 µM: 86%
HOP-92
  growth at 0.1 µM: 80%
